In patent US8846951B2 (AbbVie Inc., priority 2009, dated 2014):
Like-named read-outs stand apart in the source and are kept apart here.

Legend:
5HT2B receptors = target: T1, 5HT2B receptors (Homo sapiens, UniProt P41595); assay: Human 5-HT2B functional high throughput screening assay in CHO-K1 cells (calcium flux); assay type: cell-based; details: for EC50: CHO-K1 cells, calcium flux
T1 construct: expressed in transfected cells; host or cells: CHO-K1 cells
Procedure, shortened: (§1)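 FLIPR calcium readout, ex 480/em 530 nm, 25 °C, 3 min post-addition; agonist response normalized to serotonin, 4-parameter fit → EC50, Emax (% serotonin). Cells: frozen CHO-K1 stable lines, serum-free overnight, Ca4 dye + 2.5 mM probenecid, 60 min RT dark.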

5HT2C receptors = target: T2, 5HT2C receptors (Homo sapiens, UniProt P28335); assay: Human 5-HT2C functional high throughput screening assay in CHO-K1 cells (calcium flux); assay type: cell-based; parameters: expressed in transfected cells; host or cells: CHO-K1 cells; details: for EC50: CHO-K1 cells, calcium flux; for Emax: CHO-K1, 5-HT2C, maximum functional response as percentage relative to the effect of serotonin
T2 sequence (P28335 33-458): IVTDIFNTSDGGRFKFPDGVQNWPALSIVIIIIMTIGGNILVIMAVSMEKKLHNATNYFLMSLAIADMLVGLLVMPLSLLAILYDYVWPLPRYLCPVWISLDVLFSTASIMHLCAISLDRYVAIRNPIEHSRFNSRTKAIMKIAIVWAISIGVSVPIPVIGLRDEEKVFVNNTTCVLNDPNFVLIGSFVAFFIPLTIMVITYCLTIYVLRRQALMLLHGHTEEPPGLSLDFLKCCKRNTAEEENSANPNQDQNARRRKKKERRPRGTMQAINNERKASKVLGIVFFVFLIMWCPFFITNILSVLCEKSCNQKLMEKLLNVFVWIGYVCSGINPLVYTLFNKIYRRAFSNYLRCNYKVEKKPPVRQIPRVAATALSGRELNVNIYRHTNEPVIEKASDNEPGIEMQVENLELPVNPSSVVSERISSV
Procedure, shortened: as §1

[1] = 5-HT2B agonist activity, read-out: EC50
[2] = 5-HT2B, maximum functional response as percentage relative to the effect of serotonin
[3] = 5-HT2C agonist activity, read-out: EC50

T1 sequence (P41595 whole entry): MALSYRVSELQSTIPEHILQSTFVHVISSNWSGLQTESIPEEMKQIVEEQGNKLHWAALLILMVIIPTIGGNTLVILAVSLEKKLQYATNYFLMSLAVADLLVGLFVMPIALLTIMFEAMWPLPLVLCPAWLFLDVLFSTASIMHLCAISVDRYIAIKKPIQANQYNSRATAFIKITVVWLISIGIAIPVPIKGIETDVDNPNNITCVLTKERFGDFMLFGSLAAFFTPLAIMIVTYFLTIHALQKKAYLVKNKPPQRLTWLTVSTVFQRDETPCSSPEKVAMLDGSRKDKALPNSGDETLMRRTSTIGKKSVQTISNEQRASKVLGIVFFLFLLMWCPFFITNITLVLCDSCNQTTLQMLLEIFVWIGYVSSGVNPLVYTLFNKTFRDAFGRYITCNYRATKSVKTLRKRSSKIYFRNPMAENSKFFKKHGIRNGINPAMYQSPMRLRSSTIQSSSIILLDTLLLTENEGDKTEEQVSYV

EC50 (5HT2B receptors; [1]) [nM]	Emax (5HT2B receptors; [2])	EC50 (5HT2C receptors; [3]) [nM]	Emax (5HT2C receptors; read-out: Emax) [%]	SMILES	EC50 (5HT2B receptors; EC50, 5-HT2B agonist activity) [nM]	Emax (5HT2C receptors) [%]	EC50 (5HT2C receptors; EC50, 5-HT2C agonist activity) [nM]	Emax (5HT2B receptors; CHO-K1) [%]
> 10000	inactive	0.3	110	C[C@@H](O)c1cc(-c2ccc3c(c2)C(=O)NC[C@H]2CN(C)C[C@H]32)ccc1F (single isomer, unassigned) [Example 353]				
				CN1C[C@@H]2CNC(=O)c3c(OC(F)(F)F)cccc3[C@H]2C1 [Example 113, (3aS,10bS)-2-Methyl-7-(trifluoromethoxy)-1,2,3,3a,4,5-hexahydrobenzo[c]pyrrolo[3,4-e]azepin-6(10bH)-one]	2000	120	5	20
> 10000	inactive		90	CN1C[C@H]2CNC(=O)c3cc(-c4ccc(F)cc4)ccc3[C@@H]2C1 [Example 116, (3aR,10bR)-8-(4-Fluorophenyl)-2-methyl-1,2,3,3a,4,5-hexahydrobenzo[e]pyrrolo[3,4-c]azepin-6(10bH)-one]				
> 10000	inactive		110	COc1ccc(-c2ccc3c(c2)C(=O)NC[C@@H]2CN(C)C[C@@H]32)cc1 [Example 159, (3aR,10bR)-8-(4-Methoxyphenyl)-2-methyl-1,2,3,3a,4,5-hexahydrobenzo[e]pyrrolo[3,4-c]azepin-6(10bH)-one]				
> 10000	inactive	0.8	> 120	COc1cccc(-c2ccc3c(c2)C(=O)NC[C@H]2CN(C)C[C@H]32)c1 [Example 160, (3aS,10bS)-8-(3-Methoxyphenyl)-2-methyl-1,2,3,3a,4,5-hexahydrobenzo[e]pyrrolo[3,4-c]azepin-6(10bH)-one]				
> 10000	inactive		110	COc1cccc(-c2ccc3c(c2)C(=O)NC[C@@H]2CN(C)C[C@@H]32)c1 [Example 161, (3aR,10bR)-8-(3-Methoxyphenyl)-2-methyl-1,2,3,3a,4,5-hexahydrobenzo[e]pyrrolo[3,4-c]azepin-6(10bH)-one]				
				CN1C[C@@H]2CNC(=O)c3cc(F)cc(F)c3[C@H]2C1 [Example 162, (3aS,10bS)-8,10-Difluoro-2-methyl-1,2,3,3a,4,5-hexahydrobenzo[e]pyrrolo[3,4-c]azepin-6(10bH)-one]	100	> 120	8	40
				CN1C[C@@H]2CN(C)C(=O)c3cc(F)ccc3[C@H]2C1 [Example 163, (3aR,10bS)-8-Fluoro-2,5-dimethyl-1,2,3,3a,4,5-hexahydrobenzo[e]pyrrolo[3,4-c]azepin-6(10bH)-one]	800	> 120	60	20

SMILES	EC50 (5HT2B receptors; [1]) [nM]	Emax (5HT2B receptors; [2])	EC50 (5HT2C receptors; [3]) [nM]	Emax (5HT2C receptors; read-out: Emax) [%]	EC50 (5HT2B receptors; EC50, 5-HT2B agonist activity) [nM]	Emax (5HT2C receptors) [%]	EC50 (5HT2C receptors; EC50, 5-HT2C agonist activity) [nM]	Emax (5HT2B receptors; CHO-K1) [%]
O=C1NC[C@H]2CN(Cc3ccccc3)C[C@@H]2c2c(F)cc(F)cc21 [Example 105, (3aS,10bS)-2-Benzyl-8,10-difluoro-1,2,3,3a,4,5-hexahydrobenzo[c]pyrrolo[3,4-e]azepin-6(10bH)-one]		inactive			> 10000	> 120	20	
CN1C[C@H]2CNC(=O)c3c(OC(F)(F)F)cccc3[C@@H]2C1 [Example 112, (3aR,10bR)-2-Methyl-7-(trifluoromethoxy)-1,2,3,3a,4,5-hexahydrobenzo[c]pyrrolo[3,4-e]azepin-6(10bH)-one]		inactive			> 10000	90		
O=C1NC[C@H]2CNC[C@@H]2c2ccc(OCc3ccccc3F)cc21 [Example 179, (3aR,10bS)-8-(2-Fluorobenzyloxy)-1,2,3,3a,4,5-hexahydrobenzo[e]pyrrolo[3,4-e]azepin-6(10bH)-one]		inactive			> 10000	> 120	0.3	
O=C1NC[C@@H]2CNC[C@H]2c2ccc(OCc3ccccc3F)cc21 [Example 180, (3aS,10bR)-8-(2-Fluorobenzyloxy)-1,2,3,3a,4,5-hexahydrobenzo[e]pyrrolo[3,4-c]azepin-6(10bH)-one]		inactive			> 10000	> 120		
